{
  "source": "patent US20120214736A1",
  "about": "“COMPOSITIONS AND METHODS FOR THE MODULATION OF JNK PROTEINS” (Isis Pharmaceuticals, Inc., priority 2006, published 2012)",
  "key": {"rat JNK1 mRNA": {"system": "rat JNK1 mRNA", "assay": "Northern assay, rat JNK1 mRNA levels in A10 aortic smooth muscle cells", "assay_type": "cell-based", "conditions": "Northern assays", "method": "(§1) In order to study the role of JNK proteins in animal models, oligonucleotides targeted to the genes encoding JNK1, JNK2 and JNK3 of Rattus norvegicus were prepared. These oligonucleotides are 2′-methoxyethoxy, phosphodiester/2′-hydroxyl, phosphorothioate/2′-methoxyethoxy, phosphodiester “gapmers” in which every cytosine residue is 5-methylcytosine (m5c). These antisense compounds were synthesized according to the methods of the disclosure. Certain of these oligonucleotides are additionally specifically hybridizable to JNK genes from other species as indicated herein. The oligonucleotides described in this Example were tested for their ability to modulate rat JNK mRNA levels essentially according to the methods described in the preceding Examples, with the exceptions that the cell line used was rat A10 aortic smooth muscle cells (ATCC No. ATCC CRL-1476) and the probes used were specific for rat JNK1, JNK2 or JNK3 (see infra). A10 cells were grown and treated with oligonucleotides essentially as described by (Cioffi et al. Mol. Pharmacol., 1997, 51, 383).\n(§2) These antisense compounds were tested for their ability to modulate levels of (JNK1) and (JNK2) mRNA in A10 cells via Northern assays. Due to the high degree of sequence identity between the human and rat genes, radiolabeled human JNK1 (Example 3) and JNK2 (Example 4) cDNAs functioned as specific probes for the rat homologs. […]"}, "JNK1 mRNA": {"system": "JNK1 mRNA", "assay": "Northern assay, JNK1 mRNA expression in A549 cells", "assay_type": "cell-based, human", "conditions": "for response of JNK1 mRNA levels in A549 cells (dose and sequence dependence): 50, 100, 200 and 400 nM; for RNA % Inhibition: 300 nM for initial 20 hours then 200 nM for 4 hours", "method": "(§3) In order to evaluate the activity of potential JNK-modulating oligonucleotides, human lung carcinoma cell line A549 (American Type Culture Collection, Rockville, Md. No. ATCC CCL-185) cells or other cell lines as indicated in the Examples, were grown and treated with oligonucleotides or control solutions as detailed below. After harvesting, cellular extracts were prepared and examined for specific JNK mRNA levels or JNK protein levels (i.e., Northern or Western assays, respectively). In all cases, “% expression” refers to the amount of JNK-specific signal in an oligonucleotide-treated cell relative to an untreated cell (or a cell treated with a control solution that lacks oligonucleotide).\n(§4) Northern Assays The mRNA expression of each JNK protein was determined by using a nucleic acid probe specifically hybridizable thereto. Nucleic acid probes specific for JNK1, JNK2 and JNK3 are described in Examples 3, 4 and 5, respectively. The probes were radiolabelled by means well known in the art (see, e.g., Short Protocols in Molecular Biology, 2nd Ed., Ausubel et al., Eds., John Wiley & Sons, New York, 1992, pages 3-11 to 2-3-44 and 4-17 to 4-18; Ruth, Chapter 6 In: Methods in Molecular Biology, Vol. 26: Protocols for Oligonucleotide Conjugates, Agrawal, ed., Humana Press Inc., Totowa, N.J., 1994, pages 167-185; and Chapter 10 In: Molecular Cloning: A Laboratory Manual, 2nd Ed., Sambrook et al., Eds., pages 10.1-10.70). The blots were stripped and reprobed with a ^32P-labeled glyceraldehyde 3-phosphate dehydrogenase (G3PDH) probe (Clontech Laboratories, Inc., Palo Alto, Calif.) in order to confirm equal loading of RNA and to allow the levels of JNK transcripts to be normalized with regard to the G3PDH signals.\n(§5) A549 cells were grown in T-75 flasks until 80-90% confluent. At this time, the cells were washed twice with 10 mL of media (DMEM), followed by the addition of 5 mL of DMEM containing 20 ┘g/mL of LIPOFECTIN™ (i.e., 1:1 (w/w) DOTMA/DOPE, Life Technologies, Gaithersburg, Md.; DOTMA=N-[1-(2,3-dioleyoxy)propyl]-N,N,N-trimethylammonium chloride; DOPE=dioleoyl phosphatidylethanolamine). The oligonucleotides were added from a 10 μM stock solution to a final concentration of 400 nM, and the two solutions were mixed by swirling the flasks. As a control, cells were treated with LIPOFECTIN™ without oligonucleotide under the same conditions and for the same times as the oligonucleotide-treated samples. After 4 hours at 37° C., the medium was replaced with fresh DMEM containing 10% serum. The cells were allowed to recover for 18 hours. Total cellular RNA was then extracted in guanidinium, subject to gel electrophoresis and transferred to a filter according to techniques known in the art (see, e.g., Chapter 7 In: Molecular Cloning: A Laboratory Manual, 2nd Ed., Sambrook et al., Eds., pages 7.1-7.87, and Short Protocols in Molecular Biology, 2nd Ed., Ausubel et al., Eds., John Wiley & Sons, New York, 1992, pages 2-24 to 2-30 and 4-14 to 4-29). Filters were typically hybridized overnight to a probe specific for the particular JNK gene of interest in hybridization buffer (25 mM KPO4, pH 7.4; 5×SSC; 5×Denhardt's solution, 100 µg/ml Salmon sperm DNA and 50% formamide) (Alahari et al., Nucl. Acids Res., 1993, 21, 4079). This was followed by two washes with 1×SSC, 0.1% SDS and two washes with 0.25×SSC, 0.1% SDS. Hybridizing bands were visualized by exposure to X-OMAT AR film and quantitated using a PHOSPHORIMAGER™ essentially according to the manufacturer's instructions (Molecular Dynamics, Sunnyvale, Calif.).\nJNK1-specific probes: In initial screenings of a set of oligonucleotides derived from the JNK1 sequence (Table 2) for biological activity, a cDNA clone of JNK1 (Derijard et al., Cell, 1994, 76, 1025) was radiolabeled and used as a JNK1-specific probe in Northern blots. Alternatively, however, one or more of the oligonucleotides of Table 1 is detectably labeled and used as a JNK1-specific probe. […]"}, "JNK2 mRNA": {"system": "JNK2 mRNA", "assay": "Northern assay, JNK2 mRNA expression in A549 cells", "assay_type": "cell-based, human", "conditions": "for response of JNK2 mRNA levels in A549 cells (dose and sequence dependence): 50, 100, 200 and 400 nM", "method": "as §3, §4\nas §5, with “This was followed by two washes with 1×SSC, 0.1% SDS and two washes with 0.25×SSC, 0.1% SDS.” left out, “Calif.). […]” for “Calif.).”"}, "human JNK2 mRNA": {"system": "human JNK2 mRNA", "assay": "Northern analysis, human JNK2 mRNA in Jurkat cells (electroporation, dose response)", "assay_type": "cell-based", "conditions": "Jurkat cells", "method": "Jurkat cells were routinely cultured in RPMI Medium 1640 (Gibco/Life Technologies, Gaithersburg, Md.) supplemented with 20% fetal calf serum (Gibco/Life Technologies, Gaithersburg, Md.). Cells were routinely passaged by aspirating media that contained excess cells and replenishing with new media.\nFor electroporation, cells were diluted to 28×10^6 cells/mL and placed into 1 mm electroporation cuvettes. Electroporation is performed by treating with 1-20 μM oligonucleotide, at 160 Volts for 6 msec. The entire electroporated samples are then placed into 5 mL of 10% FBS/RPMI Medium 1640 in 100 mm plates. Plates are then left overnight at 37° C./5% CO2.\nEach sample is then transferred to 15 mL conical tubes and spun down at 1200 rpm for 5 minutes followed by aspiration of the supernatant. Cells are then suspended in 5 mL PBS followed by a second centrifugation at 1200 rpm for 5 minutes followed by aspiration of the supernatant. Cells are then washed and lysed. Following the lysis step, total cellular RNA is then isolated using the RNEASY kit (Qiagen, Santa Clarita, Calif.) as described in other examples herein.\nIn accordance with the present invention, Jurkat cells were treated by electroporation with 1, 5 or 20 uM ISIS 101759 or the control oligonucleotide and mRNA levels of human JNK2 were quantitated by Northern analysis."}, "rat JNK2 mRNA": {"system": "rat JNK2 mRNA", "assay": "Northern assay, rat JNK2 (p54a) mRNA levels in A10 aortic smooth muscle cells", "assay_type": "cell-based", "conditions": "Northern assays", "method": "as §1, §2"}, "[1]": {"system": "TNFa-induced JNK activity", "assay": "TNFa-induced JNK activity in HUVEC (GST-c-Jun phosphorylation)", "assay_type": "cell-based, human", "conditions": "100 nM, 5 ng/ml TNFa 15 minutes, compared to a control oligonucleotide", "method": "Human umbilical vein endothelial cells (HUVEC, Clonetics, San Diego Calif.) were incubated with oligonucleotide with LipofectinJ in Opti-MEMJ for 4 hours at 37° C./5% CO2. The medium was then replaced with 1% FBS/EGM (Clonetics, Walkersville Md.) and incubated for 24 hours at 37° C./5% CO2. Cells were treated with 5 ng/ml TNFa for 15 minutes before lysis. JNK activity was determined by incubating lysates (normalized for protein) with immobilized GST-c-Jun fusion protein (e.g., New England Biolabs, Beverly, Mass.)+^32P-ATP. GST-c-Jun beads were washed and SDS-PAGE sample buffer was added. Samples were resolved by SDS-PAGE and phosphorylated c-Jun was visualized using a Molecular Dynamics PhosphorImager."}},
  "note": "In the oligonucleotide strings, read from the 5' end, every base follows the letter of its sugar. An asterisk marks phosphorothioate; unmarked linkages are phosphodiester. Other units and linkages are bracketed, terminal groups are in braces. A string of capitals states the bases alone. e = 2'-O-(2-methoxyethyl) (MOE); [5mC] = 5-methylcytosine; d = 2'-deoxy (DNA)",
  "data": [
    {"substance": "21859 (antisense e[5mC]eTe[5mC]eAeT*dG*dA*dT*dG*dG*d[5mC]*dA*dA*dG*d[5mC]*eAeAeTeTeA) [compound 21859]", "values": [
      {"measurement": "specific modulation of mRNA encoding JNK1 (dose response)", "setting": "rat JNK1 mRNA", "result": "specifically modulates levels of mRNA encoding JNK1 and JNK2, respectively"}
    ]},
    {"substance": "14320 (sense CCAAGCGGGCCTACAGAGAG; DNA, all phosphorothioate, methylation of C not given here) [compound 14320]", "values": [
      {"measurement": "response of JNK1 mRNA levels in A549 cells (dose and sequence dependence)", "setting": "JNK1 mRNA", "result": "neither of the control oligonucleotides effect any consistent response"}
    ]},
    {"substance": "14319 (dG*dT*dG*dC*dG*dC*dG*dC*dG*dA*dG*dC*dC*dC*dG*dA*dA*dA*dT*dC) [compound 14319]", "values": [
      {"measurement": "response of JNK2 mRNA levels in A549 cells (dose and sequence dependence)", "setting": "JNK2 mRNA", "result": "neither of the control oligonucleotides effect any consistent response"}
    ]},
    {"substance": "101759 (antisense GCTCAGTGGACATGGATGAG; sugars from the 5' end e5 d10 e5, all phosphorothioate, methylation of C not given here) [compound 101759]", "values": [
      {"measurement": "Percent Inhibition of human JNK2 mRNA", "setting": "human JNK2 mRNA; 1 uM", "result": 14, "unit": "%"},
      {"measurement": "Percent Inhibition of human JNK2 mRNA", "setting": "human JNK2 mRNA; 5 uM", "result": 56, "unit": "%"},
      {"measurement": "Percent Inhibition of human JNK2 mRNA", "setting": "human JNK2 mRNA; 20 uM", "result": 92, "unit": "%"}
    ]},
    {"substance": "12560 (antisense dG*dT*dC*dC*dG*dG*dG*dC*dC*dA*dG*dG*dC*dC*dA*dA*dA*dG*dT*dC) [compound 12560]", "values": [
      {"measurement": "level of inhibition of JNK2", "setting": "JNK2 mRNA; for at least about 12 hours following the 4 hour treatment", "result": "greater than or equal to 80%"},
      {"measurement": "level of inhibition of JNK2", "setting": "JNK2 mRNA; up to at least about t=48 h", "result": "greater than or equal to 60%"}
    ]},
    {"substance": "14321 (CTTTCCGTTGGACCCCTGGG; DNA, all phosphorothioate, methylation of C not given here) [compound 14321]", "values": [
      {"measurement": "response of JNK1 mRNA levels in A549 cells (dose and sequence dependence)", "setting": "JNK1 mRNA", "result": "neither of the control oligonucleotides effect any consistent response"}
    ]},
    {"substance": "18259 (antisense eGe[5mC]eTe[5mC]eA*dG*dT*dG*dG*dA*d[5mC]*dA*dT*dG*dG*eAeTeGeAeG) [compound 18259]", "values": [
      {"measurement": "specific modulation of mRNA encoding JNK2 (dose response)", "setting": "rat JNK2 mRNA", "result": "specifically modulates levels of mRNA encoding JNK1 and JNK2, respectively"}
    ]},
    {"substance": "14318 (sense dG*dA*dC*dT*dT*dT*dG*dG*dC*dC*dT*dG*dG*dC*dC*dC*dG*dG*dA*dC) [compound 14318]", "values": [
      {"measurement": "response of JNK2 mRNA levels in A549 cells (dose and sequence dependence)", "setting": "JNK2 mRNA", "result": "neither of the control oligonucleotides effect any consistent response"}
    ]},
    {"substance": "15346 (antisense CTCTCTGTAGGCCCGCTTGG; gapmer: P=S, 2'-MOE wings, 2'-deoxy core, chemistry not fully specified) [compound 15346]", "values": [
      {"measurement": "RNA % Inhibition", "setting": "JNK1 mRNA; t = 48 h", "result": 95.7, "unit": "%"},
      {"measurement": "RNA % Inhibition", "setting": "JNK1 mRNA; t = 72 h", "result": 89.4, "unit": "%"}
    ]},
    {"substance": "12539 (antisense CTCTCTGTAGGCCCGCTTGG; DNA, all phosphorothioate, methylation of C not given here) [compound 12539]", "values": [
      {"measurement": "response of JNK1 mRNA levels in A549 cells (dose and sequence dependence)", "setting": "JNK1 mRNA", "result": "dependent on dose in an approximately linear fashion"},
      {"measurement": "RNA % Inhibition", "setting": "JNK1 mRNA; t = 48 h", "result": 93.3, "unit": "%"},
      {"measurement": "RNA % Inhibition", "setting": "JNK1 mRNA; t = 72 h", "result": 88.3, "unit": "%"},
      {"measurement": "response of JNK2 mRNA levels in A549 cells (dose and sequence dependence)", "setting": "JNK2 mRNA", "result": "dependent on dose in an approximately linear fashion"}
    ]},
    {"substance": "15353 (antisense GTCCGGGCCAGGCCAAAGTC; P=S gapmer, 2'-MOE wings, chemistry not fully specified) [compound 15353]", "values": [
      {"measurement": "inhibition of TNFa-induced JNK activity", "setting": "[1]", "result": "approximately 55%"}
    ]}
  ]
}
